These results are taken from patent US4214095A, “Chlorobenzyl phenoxy alkoxylates” (Siegfried Aktiengesellschaft, priority 1979, dated 1980).

Where a name gives a salt, the structure may show the parent alone. Read-outs that look alike come from different tables or passages of the source. Bounds are passed on as bounds.

Data set [1] is described as follows: Acute oral toxicity (LD50) in mice. It is filed as in vivo. Conditions: mouse, in vivo. As for the experimental part:
(§1) The compounds of Examples I to VIII were tested to evaluate their pharmacological effectiveness. Specifically, their toxicity (LD50), cholesterol-lowering effectiveness (E1 D25) and their liver weight increasing activity (E2 D25) were tested on animals according to standard methods.
(§2) At least three different doses were tested for each LD50 value given and 10 animals were used for testing of each dose; five test animals were kept in one standard "Macrolon" cage. The test substance was administered as a suspension in aqueous (3-5% by weight) Gum Arabic via a probe into the stomach in quantities of 10 ml of the suspension per kilogram body weight. As is conventional, LD50 is that dose of the test substance in mg/kg body weight which causes death of 50% of the test animals within the observation period. Higher LD50 values indicate lower toxicity and vice versa.

The subject of data set [2] is cholesterol level in the blood serum. The data set can be described thus: Cholesterol-lowering effectiveness (E1 D25) in rats. Format: in vivo, male Whistar rats. Conditions: for ED25: Rattus norvegicus, male Whistar rats, oral, daily, two weeks (5 + 5 days), vs control, read-out: E1 D25 (dose causing 25% reduction of average serum cholesterol level); for cholesterol lowering effectiveness (in words): conclusion from Table I. As to the method: as §1
(B) The effective dose E1 D25 is the amount of test substance in milligram per kilogram body weight of the test animals (male Whistar rats, 100-200 g body weight, eight to ten animals per dosis) that causes a 25% by weight reduction of the average cholesterol level in the blood serum of test animals that had received the test substance, compared with the cholesterol level in the blood serum of the control group. The test substances were administered orally via a probe in the manner set forth above for the LD50 toxicity, i.e. as suspension in aqueous Gum Arabic. Each test animal was administered daily with 10 ml of the suspension per kilogram body weight. The animals of the control group were administered daily with each 10 ml of the aqueous Gum Arabic per kilogram of body weight without the test substance. The daily dose was administered for 5 subsequent days, resumed after a two-day week-end interval and continued for 5 additional days. After a total test period of two weeks, both the test and the control animals were sacrificed and the blood serum was recovered from the bodies for analysis.
Cholesterol analysis of the serum recovered was carried out according to the standard method of M. Richterich (cf. Monography by M. Richterich, "Klinische Chemie," Verlag Karger, Basel/New York, 1965, p. 232) and the results were evaluated by means of a cholesterol level/dose diagram. The E1 D25 values were taken from the diagram thus obtained. Lower E1 D25 values indicate higher activity, and vice versa.

Data set [3] has as its system mice. Particulars: background section; cited from earlier work.
Data set [4] concerns mice. The data set can be described thus: Acute oral toxicity (LD50) in mice. It is filed as in vivo. Particulars: conclusion from Table I. As for the experimental part:
as §1, §2

Data set [5] concerns liver weight/body weight ratio (relative liver weight). Also on record: species or system male Whistar rats. Conditions: rat, in vivo. As to the method: as §1
(C) The effective dose E2 D25 is the amount of test substance in milligram per kilogram body weight of the test animals (male Whistar rats, 100-200 g body weight, eight to ten animals per dose) that causes a 25% increase of the liver weight/body weight ratio (relative liver weight) of test animals that had received that test substance, compared with the liver weight/body weight ratio of the control group. Administration was effected substantially in the manner described above for E1 D25. The relative liver weight was determined from the bodies of the sacrificed animals and the control animals. The actual increase of the relative liver weight was evaluated graphically and the E2 D25 was obtained by interpolation from the graph.

[6] abbreviates: mice, single oral dose, 7 days observation or longer, read-out: LD50.

A word on the LD50: it is the dose expected to kill half of the subjects tested. `CCOC(=O)C(C)(CC)Oc1ccc(Cc2ccc(Cl)cc2)cc1` (stereo not drawn) [Substance A, ethyl ester of 2methyl-2-4(4chlorobenzyl)-phenoxy-butyric acid, reference compound]: the LD50 at 168 h in data set [1] (po) amounted to 8000 mg/kg. Moreover, in data set [2], the ED25 was found to be 12.1 mg/kg.

As to `CCOC(=O)COc1ccccc1Cc1ccc(Cl)cc1` [Example VI], in data set [1] (po, read-out: LD50), the 50% lethal dose (LD50) at 168 h is 3000 mg/kg. Besides, in data set [2], the ED25 amounted to 300 mg/kg and the “cholesterol lowering effectiveness (in words)” value is “reduced cholesterol lowering effect”.

Consider `CCC(C)(Oc1ccccc1Cc1ccc(Cl)cc1)C(=O)OCc1cccnc1` (racemic) [Example III, D,L-2-methyl-2-[o-(p'-chlorobenzyl)-phenoxy]-butyric acid-(3-oxymethyl-pyridine)-ester hydrochloride], for which, in data set [1] (po, read-out: LD50), the LD50 at 168 h is > 3000 mg/kg. Moreover, the ED25 in data set [2] is ~10 mg/kg.

For the compound `CCOC(=O)C(C)(C)Oc1ccccc1Cc1ccc(Cl)cc1` [Example IV, ethyl 2-methyl-2-[o-(p'-chlorobenzyl)-phenoxy]propionate], in data set [1] (po, read-out: LD50), the median lethal dose (LD50) at 168 h was > 10000 mg/kg. Further, the ED25 in data set [2] was ~90 mg/kg.

Take `CC(C)(Oc1ccccc1Cc1ccc(Cl)cc1)C(=O)OCc1cccnc1` [Example V, 2-methyl-2-[o-(p'-chlorobenzyl)-phenoxy]-propionic acid-(3-oxymethyl-pyridine)-ester hydrochloride]: the LD50 at 168 h in data set [1] (setting [6]) was > 3000 mg/kg.

With `CCOC(=O)C(C)(C)Oc1ccc(Cl)cc1` [Substance B, Ethyl p-chlorophenoxyisobutyrate, reference compound], in data set [1] (setting [6]), the LD50 at 168 h came to 2350 mg/kg. Further, the ED25 in data set [2] is 151 mg/kg. Further, the “toxicity (in words)” value in the data set on mice [3] is “relatively high toxicity”.

Take `CCCC(C)(Oc1ccccc1Cc1ccc(Cl)cc1)C(=O)OCC` (racemic) [Example II, ethyl D,L-2-methyl-2-[o-(p'-chlorobenzyl)-phenoxy]-valerate]: the LD50 at 168 h in data set [1] (po, read-out: LD50) is > 10000 mg/kg. The ED25 in data set [2] is ~40 mg/kg.

`CCOC(=O)C(C)Oc1ccccc1Cc1ccc(Cl)cc1` (stereo not drawn) [Example VII]: the LD50 at 168 h in data set [1] (po, read-out: LD50) was > 3000 mg/kg. Further, in data set [2], the ED25 is 100 mg/kg and the “cholesterol lowering effectiveness (in words)” value was “reduced cholesterol lowering effect”.

Take `CCOC(=O)C(C)(CC)Oc1cccc(Cc2ccc(Cl)cc2)c1` (stereo not drawn) [Example VIII]: in data set [2], the ED25 stood at 40 mg/kg.

In the case of `CCOC(=O)C(C)(CC)Oc1ccccc1Cc1ccc(Cl)cc1` (racemic) [Example I, ethyl D,L-2-methyl-2-[o-(p'-chlorobenzyl)-phenoxy]butyrate], the LD50 at 168 h in data set [1] (po, read-out: LD50) is > 10000 mg/kg. In addition, the “toxicity (in words)” value with mice [4] is listed as “low toxicity”. Moreover, in data set [2], the ED25 was ~10 mg/kg and the “cholesterol lowering effectiveness (in words)” value is on record as “high cholesterol lowering effectiveness”. In data set [5], the “liver enlargement activities (in words)” value is reported as “low or very low liver enlargement activities”.
